Literature values as cited in patent publication US20220212015A1, “SURGICAL SYSTEM AND METHODS OF USE” (priority 2021, published 2022).

System: myofibroblast formation
Conditions: Ajmal et al. (2003)

In the case of O=S(=O)([O-])CCS.[Na+] [MESNA, sodium 2-mercaptoethane sulfonate], the “effect on myofibroblast formation” value is given as “diminish myofibroblast formation”.
